Measurements as given in US7795456B2, “Insecticidal N-substituted sulfoximines” (Dow AgroSciences LLC, priority 2004, dated 2010).
Like-named read-outs stand apart in the source and are kept apart here.

How the values were obtained:
[1] = tested on: beet armyworm (Spodoptera exigua); assay: Insecticidal test for beet armyworm in injection assays; details: 1 h, read-out: BAW SYM: % showing intoxicated symptoms at 10 μg/larva against beet armyworm in injection tests
[2] = tested on: beet armyworm (Spodoptera exigua)
[3] = tested on: corn earworm (Helicoverpa zea)
[4] = tested on: yellow fever mosquito (Aedes aegypti) larvae; assay: whole plant or invertebrate; type: in vivo; details: 72 h, read-out: YFM 26: % control at 26 ppm against yellow fever mosquito in submerge tests
[5] = tested on: cotton aphid (Aphis gossypii); assay: Insecticidal test for cotton aphid, foliar spray on squash; details: for pest or weed control at 50 ppm / pest or weed control at 200 ppm: Aphis gossypii, foliar, 72 h; for pest or weed control at 50 ppm: read-out: CA 50: % control at 50 ppm against cotton aphid in foliar spray tests; for pest or weed control at 200 ppm: read-out: CA 200: % control at 200 ppm against cotton aphid in foliar spray tests
[6] = tested on: fruit fly (Drosophila melanogaster)
[7] = tested on: sweet potato whitefly (Bemisia tabaci); assay: Insecticidal test for sweet potato whitefly, foliar spray on cotton; details: for pest or weed control at 200 ppm: Bemisia tabaci, in Gossypium hirsutum, foliar, read-out: SPW 200: % control at 200 ppm against sweet potato whitefly in foliar spray tests
[8] = tested on: green peach aphid (Myzus persicae); assay: Insecticidal test for green peach aphid, foliar spray on cabbage seedlings
[9] = 50 μg/cm2, second-instar larvae, 5 days

Row | SMILES | pest or weed control at 0.01 mg [1] [%] | BAW 50: % mortality at 50 μg/cm2 against beet armyworm in dietary tests [2, 9] | CEW 50: % mortality at 50 μg/cm2 against corn earworm in dietary tests [3, 9] | pest or weed control at 26 ppm [4] [%] | pest or weed control at 50 ppm [5] [%] | pest or weed control at 200 ppm [5] [%] | FF SYM: % showing intoxicated symptoms at 25 μg/cm2 against fruit fly in dietary tests ([6]; 25 μg/cm2, 4 h) | FF 25: % mortality at 25 μg/cm2 against fruit fly in dietary tests ([6]; 25 μg/cm2, 48 h) | further results
1 | CS(=O)(=NC#N)C(Cl)c1ccc(Cl)nc1 (stereo not shown) [Compound 23] | < 50 | G (Inactive) | G (Inactive) | 90 to 100 | 90 to 100 | 90 to 100 | A (90-100) | A (90-100) | 
2 | CC(C)(c1ccc(Cl)nc1)S(C)(=O)=NC#N (stereo not shown) [Compound 9, [1-(6-chloropyridin-3-yl)-1-methylethyl](methyl)oxido-λ^4-sulfanylidenecyanamide] | < 50 | G (Inactive) | G (Inactive) | 90 to 100 | 90 to 100 | 90 to 100 | A (90-100) | C (70-79) | 
3 | N#CN=S1(=O)CCCC1Cc1cnc(Cl)s1 (stereo not shown) [Compound 11, 2-[(2-chloro-1,3-thiazol-5-yl)methyl]-1-oxidotetrahydro-1H-1λ^4-thien-1-ylidenecyanamide] | 60 to 69 | G (Inactive) | G (Inactive) | 90 to 100 | 90 to 100 | 90 to 100 |  | D (60-69) | 
4 | C[C@H](c1ccc(Cl)nc1)[S@](C)(=O)=NC#N [Compound 28] | 60 to 69 | G (Inactive) | G (Inactive) | 90 to 100 | 90 to 100 | 90 to 100 | A (90-100) | A (90-100) | % Control at ppm, against sweet potato whitefly: 0.4-0.78 ([7]; 0.4-0.78 ppm, rundown assay): A (90-100); % Control at ppm, against sweet potato whitefly: 2-3.13 ([7]; 2-3.13 ppm, rundown assay): A (90-100); % Control at ppm, against sweet potato whitefly: 10-12.5 ([7]; 10-12.5 ppm, rundown assay): A (90-100); % Control at ppm, against sweet potato whitefly: 50 ([7]; 50 ppm, rundown assay): A (90-100); pest or weed control at 200 ppm [7]: 90 to 100%; % Control at ppm, against cotton aphid: 0.012 ([5]; 0.012 ppm, rundown assay): A (90-100); % Control at ppm, against cotton aphid: 0.049 ([5]; 0.049 ppm, rundown assay): A (90-100); % Control at ppm, against cotton aphid: 0.195 ([5]; 0.195 ppm, rundown assay): A (90-100); % Control at ppm, against cotton aphid: 0.78 ([5]; 0.78 ppm, rundown assay): A (90-100); % Control at ppm, against cotton aphid: 3.12 ([5]; 3.12 ppm, rundown assay): A (90-100); % Control at ppm, against green peach aphid: 0.012 ([8]; 0.012 ppm, rundown assay, 3 days): F (Less than 50); % Control at ppm, against green peach aphid: 0.049 ([8]; 0.049 ppm, rundown assay, 3 days): F (Less than 50); % Control at ppm, against green peach aphid: 0.195 ([8]; 0.195 ppm, rundown assay, 3 days): B (80-89); % Control at ppm, against green peach aphid: 0.78 ([8]; 0.78 ppm, rundown assay, 3 days): A (90-100); % Control at ppm, against green peach aphid: 3.12 ([8]; 3.12 ppm, rundown assay, 3 days): A (90-100)
5 | CCS(=O)(CC(C)c1ccc(Cl)nc1)=N[N+](=O)[O-] (stereo not shown) [Compound 38] |  | G (Inactive) | G (Inactive) | < 50 | 80 to 89 | 90 to 100 |  | G (Inactive) | 
6 | N#CN=S1(=O)CCCC1 [Compound 12, 1-Oxidotetrahydro-1H-1λ^4-thien-1-ylidenecyanamide] | 90 to 100 |  |  |  | 90 to 100 | 90 to 100 |  |  | BAW 50: % mortality at 50 μg/cm2 against beet armyworm in dietary tests ([2]; in vivo): F (key: A: 90-100; B: 80-89; C: 70-79; D: 60-69; E: 50-59; F: Less than 50; G: Inactive; H: Not tested); CEW 50: % mortality at 50 μg/cm2 against corn earworm in dietary tests ([3]; in vivo): D (key: A: 90-100; B: 80-89; C: 70-79; D: 60-69; E: 50-59; F: Less than 50; G: Inactive; H: Not tested); pest or weed control at 200 ppm [7]: 80 to 89%; % Control at ppm, against cotton aphid: 0.78 ([5]; in vivo): E (key: A: 90-100; B: 80-89; C: 70-79; D: 60-69; E: 50-59; F: Less than 50; G: Inactive; H: Not tested); % Control at ppm, against cotton aphid: 3.12 ([5]; in vivo): E (key: A: 90-100; B: 80-89; C: 70-79; D: 60-69; E: 50-59; F: Less than 50; G: Inactive; H: Not tested); % Control at ppm, against cotton aphid: 12.5 ([5]; in vivo): A (key: A: 90-100; B: 80-89; C: 70-79; D: 60-69; E: 50-59; F: Less than 50; G: Inactive; H: Not tested); % Control at ppm, against cotton aphid: 50 ([5]; in vivo): A (key: A: 90-100; B: 80-89; C: 70-79; D: 60-69; E: 50-59; F: Less than 50; G: Inactive; H: Not tested); % Control at ppm, against green peach aphid: 12.5 ([8]; in vivo): F (key: A: 90-100; B: 80-89; C: 70-79; D: 60-69; E: 50-59; F: Less than 50; G: Inactive; H: Not tested); % Control at ppm, against green peach aphid: 50 ([8]; in vivo): F (key: A: 90-100; B: 80-89; C: 70-79; D: 60-69; E: 50-59; F: Less than 50; G: Inactive; H: Not tested); FF 25: % mortality at 25 μg/cm2 against fruit fly in dietary tests ([6]; in vivo): D (key: A: 90-100; B: 80-89; C: 70-79; D: 60-69; E: 50-59; F: Less than 50; G: Inactive; H: Not tested); FF SYM: % showing intoxicated symptoms at 25 μg/cm2 against fruit fly in dietary tests ([6]; in vivo): A (key: A: 90-100; B: 80-89; C: 70-79; D: 60-69; E: 50-59; F: Less than 50; G: Inactive; H: Not tested)
7 | N#CN=S1(=O)CCCCC1Cc1ccc(Cl)nc1 (stereo not shown) [Compound 5, 2-[(6-chloropyridin-3-yl)methyl]-1-oxidohexahydro-1λ^4-thiopyran-1-ylidenecyanamide] | 50 to 59 | G (Inactive) | G (Inactive) | 50 to 59 | 90 to 100 | 90 to 100 |  | G (Inactive) | 
